Laboratory results published in US12139498B1, “Positive allosteric modulators of the muscarinic acetylcholine receptor M4” (Vanderbilt University, priority 2023, dated 2024).

Columns and labels:
Human M4 = molecular target: T1, Human M4 (Homo sapiens, UniProt P08173); assay: M4 cell-based functional assay (calcium mobilization); parameters: expressed in transfected cells
T1 sequence (P08173 1-479): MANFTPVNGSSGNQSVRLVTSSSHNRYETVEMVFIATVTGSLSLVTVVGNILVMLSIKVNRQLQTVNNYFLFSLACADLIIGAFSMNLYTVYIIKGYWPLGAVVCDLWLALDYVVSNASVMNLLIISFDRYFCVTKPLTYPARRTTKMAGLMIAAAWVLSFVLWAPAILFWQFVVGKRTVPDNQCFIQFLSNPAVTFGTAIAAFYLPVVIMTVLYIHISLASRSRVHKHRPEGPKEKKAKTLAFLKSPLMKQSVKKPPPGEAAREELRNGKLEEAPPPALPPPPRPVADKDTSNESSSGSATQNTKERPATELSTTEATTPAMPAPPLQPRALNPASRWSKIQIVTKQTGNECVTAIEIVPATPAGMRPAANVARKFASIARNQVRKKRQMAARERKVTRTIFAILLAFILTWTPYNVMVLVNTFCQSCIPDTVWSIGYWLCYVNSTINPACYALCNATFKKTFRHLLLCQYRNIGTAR
Method in brief: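 CHO-K1 cells stably co-expressing hM4 and chimeric Gqi5, loaded with Fluo-4-AM (1.15 μM final, 45 min, 37° C). Compound added ~140 s before EC20 then EC80 acetylcholine; calcium flux by kinetic fluorescence (ex 480/em 530 nm), expressed as fold over basal and normalized to maximal ACh response (1 mM).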

Rat intrinsic clearance = type: in vitro ADME
Experimental: (§1) Compound 70 was tested in several in in vitro assays to investigate both metabolism and pharmacokinetics. These assays may be performed according to known methods as generally described in the following references: Conde-Ceide et al. ACS Med. Chem. Lett. 2015, 6, 716-720; Morris et al. J. Med. Chem. 2014, 57, 10192-10197; and Bubser et al. ACS Chem. Neurosci. 2014, 5, 920-942.

[1] = In vivo pharmacokinetics in dog
Experimental: Compound 70 was tested in several in vivo assays and the pharmacokinetic parameters listed in the following table may be determined from pharmacokinetic studies in rat, dog, or cynomolgus monkey, according to known methods as generally described in the following references: Garrison et al. J. Med. Chem. 2022, 65, 6273-6286; Felts et al. J. Med. Chem 2017, 60, 5072-5085; and Yu et al. J. Med. Chem. 2021, 64, 4709-4729.

[2] = Fraction unbound in rat brain; type: in vitro ADME; conditions: read-out: Rat Fu (brain)
Experimental: as §1

[3] = Fraction unbound in cyno plasma; type: in vitro ADME; conditions: cynomolgus monkey, read-out: Cyno Fu (plasma)
Experimental: as §1

P450 2C9 = P450 2C9 (Homo sapiens, UniProt P11712); assay: P450 2C9 inhibition; type: in vitro ADME
Experimental: as §1

Cyno intrinsic clearance = type: in vitro ADME; conditions: cynomolgus monkey
Experimental: as §1

P450 2C9, sequence (P11712 whole entry): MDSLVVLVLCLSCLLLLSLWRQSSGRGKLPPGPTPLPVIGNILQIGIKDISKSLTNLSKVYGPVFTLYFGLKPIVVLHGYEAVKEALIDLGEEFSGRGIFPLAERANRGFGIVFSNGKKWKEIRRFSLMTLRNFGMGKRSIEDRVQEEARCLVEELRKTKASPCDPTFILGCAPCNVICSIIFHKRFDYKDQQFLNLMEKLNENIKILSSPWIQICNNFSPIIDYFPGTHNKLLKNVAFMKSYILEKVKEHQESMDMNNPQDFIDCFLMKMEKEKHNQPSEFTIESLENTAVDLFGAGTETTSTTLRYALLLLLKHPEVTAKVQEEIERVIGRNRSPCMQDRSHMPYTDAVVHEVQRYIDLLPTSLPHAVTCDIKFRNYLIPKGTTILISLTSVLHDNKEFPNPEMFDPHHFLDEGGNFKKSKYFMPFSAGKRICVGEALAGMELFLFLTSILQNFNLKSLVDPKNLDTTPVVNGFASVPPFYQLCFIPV

Cc1c(N2CCc3nc(C4(F)CC4)sc3C2)nc2nn(C)c(=O)n2c1C [Compound 70, 7-(2-(1-fluorocyclopropyl)-6,7-dihydrothiazolo[5,4-c]pyridin-5(4H)-yl)-2,5,6-trimethyl-[1,2,4]triazolo[4,3-a]pyrimidin-3(2H)-one]
Emax at 30 µM (Human M4; % ACh maximum at 30 μM): 77%
EC50 (Human M4; CHO-K1 hM4-Gqi5 cells, calcium flux, increase in EC20 acetylcholine response): 4 nM
CLint scaled (Rat intrinsic clearance): 36 mL/min/kg
Dog oral F (3 mg/kg) ([1]; oral 3 mg/kg): 83%
clearance ([1]; plasma, read-out: Dog CLp): 24.4 mL/min/kg
half-life ([1]; plasma, read-out: Dog Elim. t1/2 (converted)): 2.1 h
Vd ([1]; plasma, read-out: Dog Vss): 3.1 L/kg
fraction unbound [2]: 0.06
fraction unbound [3]: 0.177
IC50 (P450 2C9): > 30000 nM
CLint scaled (Cyno intrinsic clearance): 24 mL/min/kg
